Measured values from patent US20130072506A1, “6,8-DISUBSTITUTED PURINE COMPOSITIONS” (priority 2011, published 2013).

Key:
[1] = test system: mitochondria of ASF-2 cells; experiment: JC-1 staining of mitochondria; assay type: cell-based, human; conditions: 3 days pre-treatment of dermal fibroblasts
Experimental: All cell culture experiments were performed on early and mid passage cultures (about 20 to 40% lifespan completed) of normal human skin fibroblast line, designated ASF-2. In order to check the effects of test compounds on senescent cells, late passage cells with more than 90% lifespan completed were used. ASF-2 cell line was established from a mammary skin biopsy obtained from a young, non-smoking and healthy […] at the time of breast reduction operation. Normal culture conditions of medium (DMEM) containing antibiotics, 10% foetal calf serum, and incubation at 37° C. with 95% humidity were used. The effects of the test compounds were determined using the following procedures.
Briefly, stock solution of JC-1 (Sigma, M2128) was made at 1 mg/ml in dimethyl sulfoxide. Fresh staining solution […] was prepared by diluting the stock solution in warm (37° C.) culture medium supplemented with 10% calf serum (final conc. 1 μg/ml). Around 3000 cells/ml were seeded in 4 chambered flasks. After three days of incubation, medium is aspirated and one ml of JC-1 staining medium is added, after incubation for 10 mins a cover slip is quickly added and viewed under fluorescent microscope at excitation wavelengths of 488 and 647 nm. […] On depolarization, the orange red punctate staining is replaced by diffuse green monomer fluorescence.

[2] = test system: SKH-1 hairless mice; experiment: Hairless mouse assay: skin histology and skin compartment measurements; assay type: in vivo; conditions: after 3 weeks of treatment
Text: (§1) Experimental Design. 48 female SKH-1 hairless mice (5 weeks old, 20-25 grams, Charles River Laboratories, Wilmington, Mass.) are individually housed in filter-top cages, and acclimated for 5-7 days after delivery. The mice are divided into 8 treatment groups (n=6), including two different control groups (untreated control, vehicle control) and a therapeutic control (tretinoin 0.05% Renova™ cream). Cage cards are marked to indicate treatment groups 1-8. Water and mouse chow are provided ad libitum.
(§2) Topical Treatments. Beginning on Treatment Day 1, test products are applied topically each morning (Monday through Friday) after erythema evaluations for 3 weeks. Using a positive displacement pipette, 20 mg of each agent is applied to a 2 cm×2 cm area of the center midline of the back. The material was spread across the treatment area with the pipette tip.
Skin Histology. Skin biopsies are taken of each treatment site and untreated control skin. Biopsies are fixed in 4% neutral buffered formalin, embedded in paraffin, and stained with hematoxylin and eosin. The stained skin sections are examined to determine the effects of the treatment on epidermal, dermal, and stratum corneum histology. Biopsies are also microscopically examined for inflammatory cells.
Skin Compartment Measurements. The H&E stained biopsy slides were imaged using a trinocular Olympus BH-2 microscope fitted with a Microfire 2.1×3 Digital Camera. 100× images were digitized and stored on CD using MS Pictureframe and Microfire Software. All compartment images were measured using a calibrated micrometer. An average of three measurements of each compartment for two slide images per biopsy was obtained and tabulated, and means and standard deviations were calculated.

[3] = test system: SKH-1 hairless mice; experiment: Hairless mouse assay: skin moisture content; assay type: in vivo; conditions: course over 3 weeks of topical treatment
Text: Evaluation of cutaneous effects of new topical compounds in the hirless mouse assay. The purpose of this study was to evaluate new topical compounds for their safety and efficacy as topical skin anti-aging treatments. The hairless mouse model is a well established model for studying the treatments of photoaging. […] The present study was used to investigate a new class of anti-aging compounds in comparison to classical ones. […] Topical compounds and vehicle controls were be applied daily (Monday-Friday) for 3 weeks to the dorsal skin of hairless mice. At baseline (prior to the 1st treatment), and weekly, the dorsal skin was measured for: transepidermal water loss (TEWL); skin moisture content; and skin elasticity.
as §1
Skin Moisture Content & Elasticity. The measurements of skin moisture content and skin elasticity are important noninvasive methods used to characterize the effects of moisturizers and anti-wrinkle effects on skin. A DermaLab™ combination instrument were used to measure the skin moisture content and elasticity of the target skin sites at baseline and at weekly intervals. This instrument is equipped with dual probes which are placed on the skin surface and a quantitative measurement taken of the respective parameters and the measurements recorded on an integrated computer. Mean measurements was determined for each treatment group over time, and comparative statistics used to evaluate product effectiveness.
as §2

[4] = clinical experience / previous clinical studies; cited from earlier work
[5] = test system: SKH-1 hairless mice; experiment: Hairless mouse assay: epidermal bromodeoxyuridine (BrdU) staining; assay type: in vivo; conditions: after 3 weeks of topical treatment
Text: This study determined the effect of topical compound formulations on epidermal cell proliferation using bromodeoxyuridine as an immunohistochemical marker of cell proliferation. Histological examination of the treated and control skin were used to determine cutaneous effects of the topical compounds. Topical tretinoin 0.05% (Renova™) was used as a therapeutic control.
as §1, §2
Bromodeoxyuridine Injection. All animal groups are injected with bromodeoxyuridine (100 mg/kg) I.P. 4 hours after the final application. Animals are sacrificed by CO2 inhalation 3 hours later followed by cervical dislocation. The test sites are excised, and 6 mm punch biopsies are obtained from each treatment site, and from untreated controls. Biopsies are placed into labeled vials containing 4% neutral buffered formalin for paraffin embedding and anti-BrdU staining.
Bromodeoxyuridine Immunohistochemical Staining. Paraffin sections are cut to a […] thickness and stained using the BrdU Immuno-histochemistry kit (X1545K from Exalpha Biologicals, Inc.) and a standard staining protocol. The slides are weakly counterstained in Mayer's hematoxylin and scored under a light microscope for the number of BrdU-positive cells per mm of epidermis for each section. The data are expressed as mean BrdU-positive cells/mm for each treatment group. Differences in BrdU labeling in the treatment groups are statistically analyzed using the Students t-test. Representative photographs are taken of the histological sections of the BrdU-positive staining cells.

[6] = test system: SKH-1 hairless mice; experiment: Hairless mouse assay: erythema scoring (skin irritation); assay type: in vivo; design: key: 0: No response; 1: Very slight redness; 2: Slight redness; 3: Moderate redness/irritation; 4: Severe redness/irritation; 5: Very severe redness/irritation; 6: Necrosis; conditions: topical, daily, 1 to 3 weeks
Text: Evaluation of cutaneous effects of new topical compounds in the hirless mouse assay. The purpose of this study was to evaluate new topical compounds for their safety and efficacy as topical skin anti-aging treatments. The hairless mouse model is a well established model for studying the treatments of photoaging. This model has been used to study mechanisms, define effective treatment regimens and assess safety for retinoids and other anti-aging products. The present study was used to investigate a new class of anti-aging compounds in comparison to classical ones. Recent clinical studies have shown that this class of compounds improve the appearance of photodamaged skin and decrease transepidermal water loss (TEWL) without causing skin irritation. This study investigated the mechanisms of how these compounds affect the skin aging process and help to identify new compounds which are safe and effective for preventing and improving the clinical features of photoaged skin. Topical compounds and vehicle controls were be applied daily (Monday-Friday) for 3 weeks to the dorsal skin of hairless mice. At baseline (prior to the 1st treatment), and weekly, the dorsal skin was measured for: transepidermal water loss (TEWL); skin moisture content; and skin elasticity.
Experimental Design. […]
Technical staff recorded erythema scores for all animals each morning. […]

| Compound | JC-1 staining [1] | skin compartment thickness ([2]; H&E stained biopsies) | histological evaluation of skin biopsies [2] | skin moisture content (skin conductance) [3] | TEWL [4] | epidermal BrdU staining [5] | Erythema score (Grade) [6] |
| --- | --- | --- | --- | --- | --- | --- | --- |
| CN[C@@H]1C[C@H]2O[C@@](C)([C@@H]1OC)n1c3ccccc3c3c4c(c5c6ccccc6n2c5c31)C(=O)NC4 [staurosporine, reference compound] | drastically reduced the uptake of JC-1 and J-aggregate formation | – | – | – | – | – | – |
| CC1=C(/C=C/C(C)=C/C=C/C(C)=C/C(=O)O)C(C)(C)CCC1 [tretinoin] | – | increased both epidermal and dermal thickness | marked increased thickness of the epidermis and inflammatory changes in the dermis | significant decrease | increase in TEWL | no epidermal BrdU staining | 3 |
